Key:
Assay type in all cases: biochemical, Nicotiana tabacum
[1] = tested on: AS holoenzyme of ASA2 transgenic tobacco lines; assay: AS holoenzyme activity, inhibition by Trp, ASA2 transgenic lines (10 mM Gln); settings: 300 μM Trp, pC2ASA2 lines
Method: (§1) Approximately 2 g of leaves was homogenized with 1.5 volume of ice-cold extraction buffer as described in Bernasconi et al., (1994). The homogenate was centrifuged at 30,000 g at 4° C. for 10 min. The supernatant was desalted using a Econo-Pac 10 DG column (Bio-Rad, Hercules, Calif.). Protein concentration was determined using a protein dye-binding assay kit (Bio-Rad, Hercules, Calif.). The supernatant was combined with two volumes of assay buffer as described previously (Bernasconi et al., 1994) but without NH4Cl. AS enzyme activity was measured as the conversion rate of chorismate to anthranilate as described previously (Song et al., 1998). Either 100 mM NH4Cl or 10 mM glutamine was added to the assay mixture to determine α-subunit activity or AS holoenzyme activity respectively and Trp at different concentrations. Duplicate extracts of each line were analyzed.

[2] = tested on: AS α subunit of WT tobacco; assay: AS α subunit activity, inhibition by Trp, wild type (100 mM NH4Cl as amino donor); settings: 10 μm Trp, Example 6
Method: as §1

[3] = tested on: anthranilate synthase (AS) holoenzyme of WT tobacco; assay: AS holoenzyme activity, inhibition by Trp, wild type (10 mM Gln as amino donor)
Method: as §1

[4] = tested on: AS α subunit (feedback insensitive ASA2) of transgenic tobacco lines; assay: AS α subunit activity, inhibition by Trp, ASA2 transgenic lines (100 mM NH4Cl); settings: 300 μM Trp, pC2ASA2 lines
Method: as §1

N[C@@H](Cc1c[nH]c2ccccc12)C(=O)O [Trp, tryptophan]
holoenzyme activity retained by line #6 and line #7 [1]: about 40%
WT AS α subunit activity [2]: almost completely inhibited
WT relative holoenzyme activity ([3]; 300 μM Trp, Example 9): almost completely inhibited
WT AS holoenzyme activity ([3]; 10 μm Trp, Example 6): almost completely inhibited
α-subunit activity retained by line #6 and line #7 [4]: about 40%
